Biological target: T1, human EGF-R (Homo sapiens, UniProt P00533)
T1 construct: expressed in transfected cells; host or cells: F/L-HERc cells (murine IL-3-dependent FDC-P1 line transduced with LXSN retroviral vector carrying human EGF-R cDNA; packaging line GP+E86)
Experiment: Inhibition of EGF-dependent proliferation of F/L-HERc cells (Cell Titer 96 AQueous assay)
Format: cell-based
Conditions: F/L-HERc cells (murine IL-3-dependent line expressing human EGF-R), stimulated with EGF 20 ng/ml, 48 hours at 37° C.
Excerpt: A cell line of murine origin dependent on interleukin-3-(IL-3) which was genetically modified to express functional human EGF-R was used here. The proliferation of these cells known as F/L-HERc can therefore be stimulated either by murine IL-3 or by EGF (cf. von Rüden, T. et al. in EMBO J. 7, 2749-2756 (1988). and Pierce, J. H. et al. in Science 239, 628-631 (1988)).
The starting material used for the F/L-HERc cells was the cell line FDC-P1, the production of which has been described by Dexter, T. M. et al. in J. Exp. Med. 152, 1036-1047 (1980). Alternatively, however, other growth-factor-dependent cells may also be used (cf. for example Pierce, J. H. et al. in Science 239, 628-631 (1988), Shibuya, H. et al. in Cell 70, 57-67 (1992) and Alexander, W. S. et al. in EMBO J. 10, 3683-3691 (1991)). For expressing the human EGF-R cDNA (cf. Ullrich, A. et al. in Nature 309, 418-425 (1984)) recombinant retroviruses were used as described by von Rüden, T. et al., EMBO J. 7, 2749-2756 (1988), except that the retroviral vector LXSN (cf. Miller, A. D. et al. in BioTechniques 7, 980-990 (1989)) was used for the expression of the EGF-R cDNA and the line GP+E86 (cf. Markowitz, D. et al. in J. Virol. 62, 1120-1124 (1988)) was used as the packaging cell.
F/L-HERc cells were cultivated in RPMI/1640 medium (Bio Whittaker), supplemented with 10% foetal calf serum (FCS, Boehringer Mannheim), 2 mM glutamine (Bio Whittaker), standard antibiotics and 20 ng/ml of human EGF (Promega), at 37° C. and 5% CO2. In order to investigate the inhibitory activity of the compounds according to the invention, 1.5×10^4 cells per well were cultivated in triplicate in 96-well dishes in the above medium (200 μl), the cell proliferation being stimulated with either EGF (20 ng/ml) or murine IL-3. The IL-3 used was obtained from culture supernatants of the cell line X63/0 mIL-3 (cf. Karasuyama, H. et al. in Eur. J. Immunol. 18, 97-104 (1988)). The compounds according to the invention were dissolved in 100% dimethylsulphoxide (DMSO) and added to the cultures in various dilutions, the maximum DMSO concentration being 1%. The cultures were incubated for 48 hours at 37° C.
In order to determine the inhibitory activity of the compounds according to the invention the relative cell number was measured in O.D. units using the Cell Titer 96™ AQueous Non-Radioactive Cell Proliferation Assay (Promega). The relative cell number was calculated as a percentage of the control (F/LHERc cells without inhibitor) and the concentration of active substance which inhibits the proliferation of the cells by 50% (IC50) was derived therefrom.

T1 sequence (P00533 25-1210): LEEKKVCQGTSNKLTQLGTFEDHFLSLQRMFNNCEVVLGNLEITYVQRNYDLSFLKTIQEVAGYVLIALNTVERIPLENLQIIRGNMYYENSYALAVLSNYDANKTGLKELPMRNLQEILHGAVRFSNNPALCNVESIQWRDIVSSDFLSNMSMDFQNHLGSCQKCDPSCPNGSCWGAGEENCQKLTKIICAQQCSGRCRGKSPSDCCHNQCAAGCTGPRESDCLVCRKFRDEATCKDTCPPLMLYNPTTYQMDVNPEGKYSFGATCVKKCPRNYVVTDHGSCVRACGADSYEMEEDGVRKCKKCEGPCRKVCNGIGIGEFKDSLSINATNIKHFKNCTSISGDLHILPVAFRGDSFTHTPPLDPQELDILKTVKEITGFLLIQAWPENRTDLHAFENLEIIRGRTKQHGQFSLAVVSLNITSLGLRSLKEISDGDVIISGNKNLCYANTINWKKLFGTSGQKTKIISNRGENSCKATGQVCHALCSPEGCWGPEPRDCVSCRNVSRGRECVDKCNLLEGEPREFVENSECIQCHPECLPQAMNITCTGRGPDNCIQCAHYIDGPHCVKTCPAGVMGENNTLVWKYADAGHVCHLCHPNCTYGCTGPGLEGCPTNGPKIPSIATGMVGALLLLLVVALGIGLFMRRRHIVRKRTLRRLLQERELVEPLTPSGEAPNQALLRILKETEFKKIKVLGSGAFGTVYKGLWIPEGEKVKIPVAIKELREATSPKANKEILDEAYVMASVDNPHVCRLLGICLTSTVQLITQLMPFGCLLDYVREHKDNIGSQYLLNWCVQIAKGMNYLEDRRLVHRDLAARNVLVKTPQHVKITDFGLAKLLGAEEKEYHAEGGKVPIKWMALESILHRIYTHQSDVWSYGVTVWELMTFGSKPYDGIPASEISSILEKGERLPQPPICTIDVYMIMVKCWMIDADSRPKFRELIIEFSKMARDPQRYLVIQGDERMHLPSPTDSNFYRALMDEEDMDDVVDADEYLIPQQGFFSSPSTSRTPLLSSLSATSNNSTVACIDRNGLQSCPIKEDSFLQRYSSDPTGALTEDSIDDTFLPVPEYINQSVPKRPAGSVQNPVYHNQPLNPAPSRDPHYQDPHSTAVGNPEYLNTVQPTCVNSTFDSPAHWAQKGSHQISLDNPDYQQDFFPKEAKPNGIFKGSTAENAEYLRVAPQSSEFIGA

Point of comparison: `O=C1CC(N2CCN(CCOc3cc4ncnc(Nc5ccc(F)c(Cl)c5)c4cc3OCC3CCCC3)CC2)CO1` (stereo not shown) [Example 3, 4-[(3-chloro-4-fluorophenyl)amino]-6-cyclopentylmethoxy-7-{2-[4-(2-oxo-tetrahydrofuran-4-yl)-piperazin-1-yl]-ethoxy}-quinazoline], IC50 62 nM. Against it:
- O=C1CC(N2CCN(CCOc3cc4ncnc(Nc5ccc(F)c(Cl)c5)c4cc3OC3CCCC3)CC2)CO1 (stereo not shown) [3(1), 4-[(3-chloro-4-fluorophenyl)amino]-6-cyclopentyloxy-7-{2-[4-(2-oxo-tetrahydrofuran-4-yl)-piperazin-1-yl]-ethoxy}-quinazoline] — 5.6-fold lower, 11 nM
- O=C1OCCC1N1CCN(CCOc2cc3ncnc(Nc4ccc(F)c(Cl)c4)c3cc2OC2CCCC2)CC1 (stereo not shown) [Example 1, 4-[(3-chloro-4-fluorophenyl)amino]-6-cyclopentyloxy-7-{2-[4-(2-oxo-tetrahydrofuran-3-yl)-piperazin-1-yl]-ethoxy}-quinazoline] — 16-fold lower, 4 nM
- O=C1CC[C@H](CN2CCN(CCOc3cc4ncnc(Nc5ccc(F)c(Cl)c5)c4cc3OC3CCCC3)CC2)O1 [Example 4, 4-[(3-chloro-4-fluorophenyl)amino]-6-cyclopentyloxy-7-(2-{4-[(R)-(2-oxo-tetrahydrofuran-5-yl)methyl]-piperazin-1-yl}-ethoxy)-quinazoline] — within 1.5-fold, 67 nM

Source: patent US6617329B2, “Aminoquinazolines and their use as medicaments” (Boehringer Ingelheim Pharma KG, priority 2000, dated 2003)
